Assay results published in patent publication US5591613A, “Method for the preparation of D-arginine and L-ornithine” (Degussa Aktiengesellschaft, priority 1990, dated 1997).

Columns and labels:
[1] = molecular target: T1, Calf liver arginase (Bos taurus, UniProt Q2KJ64); assay: Arginase-catalysed hydrolysis of L-Arg to L-Orn, initial rates in batch, with and without inhibitors; type: biochemical; settings: for kind of inhibition / substrate behaviour: from conversion-time profiles (FIG. 3); for Vo Arginase / conversion after 2 hrs.: 0.75 M L-Arg; for Vo Arginase / conversion after 2 hrs. / conversion (%) after 1.0 hrs / conversion (%) after 1.5 hrs / conversion (%) after 2.0 hrs / ro, arginase: starting pH 11.5; for conversion (%) after 1.0 hrs / conversion (%) after 1.5 hrs / conversion (%) after 2.0 hrs / ro, arginase: 0.5 M L-Arg; for ro, arginase %: relative to 100:0
T1 construct: purchased Boehringer Mannheim (Mannheim, F.R.G.)
T1 sequence (Q2KJ64 1-322): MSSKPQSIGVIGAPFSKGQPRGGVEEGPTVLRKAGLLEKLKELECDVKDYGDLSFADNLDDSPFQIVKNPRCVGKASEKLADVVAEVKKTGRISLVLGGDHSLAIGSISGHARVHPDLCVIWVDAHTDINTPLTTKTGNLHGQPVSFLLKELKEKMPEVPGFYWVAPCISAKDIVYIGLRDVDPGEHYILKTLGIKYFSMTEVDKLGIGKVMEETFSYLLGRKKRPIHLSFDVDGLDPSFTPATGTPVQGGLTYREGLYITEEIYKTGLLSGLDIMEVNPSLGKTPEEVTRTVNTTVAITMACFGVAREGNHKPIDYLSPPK
Procedure: In further experiments, the materials used were: Calf liver arginase (activity 110 U/mg) which was obtained from Boehringer Mannheim (Mannheim, F.R.G.). Amino acids were from Rexim (Ham, France). MnSO4, MnO2, and ascorbic acid were from E. Merck (Darmstadt, F.R.G.).
(§1) Batch conditions used were: Starting pH value, except for the activity-pH curve, was either 11.5, the natural value for L-Arg in water, or 9.5, adjusted from pH 11.5 with conc. HCl. The temperature was 25° C. unless otherwise noted. Typical concentrations of L-Arg were 0.75M. Unless otherwise mentioned, [Mn2^+ ]=5-10^-4 M. Reaction progress was followed by HPLC (amino column, mobile phase: phosphate buffer (pH 6.4)/acetonitrile).
Kinetic data was obtained as follows: Initial rate data were analyzed by a non-linear regression method (Marquardt routine) with the program OPTI (U. Giesecke, KFA J ulich).
A linear slope of 1/[S] vs. [I] plot distinguishes a purely competitive inhibition mechanism from a partially competitive one. Simultaneously, the apparent and the intrinsic KM -value are proportional to [I] according to equation (5) from which the inhibition constant KI can be calculated
Since the runs have been conducted at [LArg]=50 mM=2·Km,intr,Vo =Vmax ·2·KM,intr /(KM,intr (3+[I]/KI))=Vmax ·2/(3+[I]/KI). At [I]=KI, Vo =Vmax 2/(3+1)=Vmax /2. So, KI can be calcuated with sufficient accuracy from a Vo vs. [I] plot such as FIG. 4. […] In this work, however, maximum product concentration was sought for optimal space-time-yield and work-up efficiency.

[2] = test system: ox liver arginase; settings: literature; cited from earlier work
[3] = test system: arginase; settings: literature value; cited from earlier work
[4] = molecular target: T1, Calf liver arginase; assay: Activation of arginase by Mn2+ ions; type: biochemical
Procedure: as §1
Activation by Mn^2+ ions and MnO2 precipitation: An optimum concentration of the activator Mn^2+ of 0.5 mM was found. At the prevalent alkaline pH values, MnO2 from the oxidation of Mn^2+ precipitates. To suppress oxidation, ascorbic acid was added as an reducing agent.

## N=C(N)NCCC[C@H](N)C(=O)O [L-Arg, L-arginine]
[1]
  kind of inhibition / substrate behaviour: not a substrate inhibitor
[1]; nonlinear regression of initial rate data with L-Arg
  Vmax: 459 Units (=μmol/(min·mg))
[2]
  Km: 29 mM
[3]
  Km: 4 mM

## [Mn+2] [Mn^2+]
[4]
  optimum concentration of the activator: 0.5 mM

## NCCCC[C@H](N)C(=O)O [L-Lys, reference compound]
[1]; inhibitor 0.1 M
  Vo Arginase: 0.129 mol/L/h
  conversion after 2 hrs.: 34.3%
[1]; inhibitor 0.2 M
  Vo Arginase: 0.120 mol/L/h
  conversion after 2 hrs.: 32.1%
[1]; inhibitor 0.4 M
  Vo Arginase: 0.086 mol/L/h
  conversion after 2 hrs.: 22.9%
[1]; inhibitor 0.5 M
  Vo Arginase: 0.075 mol/L/h
  conversion after 2 hrs.: 19.9%
[1]; inhibitor 0.75 M
  Vo Arginase: 0.066 mol/L/h
  conversion after 2 hrs.: 17.5%
[1]; read-out: Vo Arginase (%)
  activity at 100000 µM: 85.3%
  activity at 200000 µM: 79.9%
  activity at 400000 µM: 57%
  activity at 500000 µM: 49.5%
  activity at 750000 µM: 43.5%
[3]
  Ki: 1300 µM

## N=C(N)NCCC[C@@H](N)C(=O)O [D-Arg, D-arginine]
[1]; Ratio L/D-Arg 50:50 (DL)
  conversion (%) after 1.0 hrs: 15.6%
  conversion (%) after 1.5 hrs: 19.4%
  conversion (%) after 2.0 hrs: 26.4%
  ro, arginase: 0.097 mol/L/h
  ro, arginase %: 59.5%
[1]; Ratio L/D-Arg 60:40
  conversion (%) after 1.0 hrs: 22.2%
  conversion (%) after 1.5 hrs: 32.2%
  conversion (%) after 2.0 hrs: 35.4%
  ro, arginase: 0.1376 mol/L/h
  ro, arginase %: 73.6%
[1]; Ratio L/D-Arg 70:30
  conversion (%) after 1.0 hrs: 24.6%
  conversion (%) after 1.5 hrs: 31.8%
  conversion (%) after 2.0 hrs: 35.4%
  ro, arginase: 0.1380 mol/L/h
  ro, arginase %: 73.8%
[1]; Ratio L/D-Arg 85:15
  conversion (%) after 1.0 hrs: 25.1%
  conversion (%) after 1.5 hrs: 34.8%
  conversion (%) after 2.0 hrs: 40.2%
  ro, arginase: 0.150 mol/L/h
  ro, arginase %: 80.3%
[1]
  kind of inhibition / substrate behaviour: neither a substrate of arginase nor a non-competitive inhibitor

## NCCC[C@H](N)C(=O)O [L-Orn, L-ornithine]
[3]
  Ki: 1300 µM
